ChEMBL document CHEMBL4390673, “Identification of Novel Coumestan Derivatives as Polyketide Synthase 13 Inhibitors against Mycobacterium tuberculosis. Part II” (J Med Chem, 2019)
Converted amounts (≈) assume the structure as drawn. The source made the active and inactive calls. No cut-off for these calls is given here.

What was measured:
[1] = test system: Mycobacterium tuberculosis; assay: Antitubercular activity against Mycobacterium tuberculosis H37Rv measured after 7 days under aerobic condition by resazurin dye based assay; format: functional; conditions: 168 h
HEK293 = assay: Cytotoxicity against HEK293 cells measured after 48 hrs by CellTiter 96 AQueous One Solution Cell Proliferation assay; format: cell-based; conditions: Homo sapiens, HEK293, 48 h
Escherichia coli [2] = assay: Growth inhibition of Escherichia coli DH5[alpha]; format: organism-based; conditions: in vivo
Escherichia coli [3] = assay: Growth inhibition of Escherichia coli AB1157; format: organism-based; conditions: in vivo
HFL1 = assay: Cytotoxicity against HFL1 cells measured after 48 hrs by CellTiter 96 AQueous One Solution Cell Proliferation assay; format: cell-based; conditions: Homo sapiens, HFL1, 48 h
Vero = assay: Cytotoxicity against African green monkey Vero cells by microplate alamar blue assay; format: cell-based; conditions: Chlorocebus sabaeus
[4] = Selectivity index, ratio of IC50 for African green monkey Vero cells to MIC=; format: toxicity; conditions: read-out: Ratio IC50
[5] = test system: Mycobacterium tuberculosis; assay: Antitubercular activity against Mycobacterium tuberculosis H37Rv exposed to 1:1024 diluted serum from 50 mg/kg, po treated BALB/c mouse assessed as reduction in bacterial growth measured after 7 days by microplate alamar blue assay; format: functional, organism-based
Bacillus subtilis = assay: Growth inhibition of Bacillus subtilis 168; format: organism-based, subsp. subtilis str. 168
[6] = test system: Mycobacterium tuberculosis; assay: Antitubercular activity against Mycobacterium tuberculosis H37Rv exposed to serially diluted serum from 100 mg/kg, po treated BALB/c mouse assessed as reduction in bacterial growth measured after 7 days by microplate alamar blue assay; format: functional, organism-based
MRC5 = assay: Cytotoxicity against human MRC5 cells measured after 48 hrs by CellTiter 96 AQueous One Solution Cell Proliferation assay; format: cell-based; conditions: MRC5, 48 h
[7] = Cytotoxicity against human QSG7701 cells measured after 48 hrs by CellTiter 96 AQueous One Solution Cell Proliferation assay; format: cell-based; conditions: QSG7701, 48 h
in vitro [8] = conditions: human, liver microsomes
Description: Half life in human liver microsomes

in vitro [9] = conditions: human, liver microsomes; remark: listed apart in the source
Description: Intrinsic clearance in human liver measured from intrinsic clearance in human liver microsomes

[10] = test system: Mycobacterium tuberculosis; assay: Antitubercular activity against Mycobacterium tuberculosis H37Rv by microdilution method; format: functional
in vitro [11] = conditions: human, liver microsomes; remark: listed apart in the source
Description: Stability in human liver microsomes assessed as parent compound remaining measured after 60 mins

[12] = test system: Mycobacterium tuberculosis; assay: Antitubercular activity against Mycobacterium tuberculosis H37Rv after 6 days by resazurin dye based fluorescence assay; conditions: 144 h
in vitro [13] = conditions: human, liver microsomes; remark: listed apart in the source
Description: Intrinsic clearance in human liver microsomes

[14] = test system: Mycobacterium tuberculosis; assay: Antitubercular activity against Mycobacterium tuberculosis H37Rv; format: functional
[15] = test system: Mycobacterium tuberculosis; assay: Bactericidal activity against Mycobacterium tuberculosis H37Rv assessed as reduction in colony forming units incubated for 14 days followed by replating on 7H11 agar plates and measured by broth dilution method; format: functional
Staphylococcus aureus = assay: Growth inhibition of Staphylococcus aureus Newman; format: organism-based; conditions: in vivo
[16] = test system: Mycobacterium tuberculosis; assay: Antitubercular activity against Mycobacterium tuberculosis H37Rv measured after 7 days by alamar blue assay; format: functional; conditions: 168 h
[17] = test system: Mycobacterium tuberculosis; assay: Antitubercular activity against Mycobacterium tuberculosis H37Rv exposed to serially diluted serum from 10 mg/kg, po treated BALB/c mouse assessed as reduction in bacterial growth measured after 7 days by microplate alamar blue assay; format: functional, organism-based

In the case of C=CCCCCCCC[C@H]1C(=O)O[C@@H]1CCCCCNC(=O)c1ccc(N(C)C)cc1, the MIC [1] is reported as 0.68 µg/mL (≈ 1.59 µM).

CC(C)(C)c1cc(O)c(CN2CCCCC2)c2c1oc1c3ccc(O)cc3oc(=O)c12 showed an IC50 (HEK293) of 33.6 µM, an MIC (Escherichia coli [2]) greater than 25 µg/mL and an MIC (Escherichia coli [3]) greater than 25 µg/mL. The IC50 (HFL1) was 22.3 µM, the IC50 (Vero) was 8 µg/mL (≈ 19 µM) and the selectivity ratio [4] was 2048. For the same molecule, the Activity [5] was “inactive”, the MIC (Bacillus subtilis) was greater than 25 µg/mL and the Activity [6] was “Active”. For the same molecule, the IC50 (MRC5) was 30.6 µM and the IC50 [7] was 34.1 µM.

Work on CC1CCN(Cc2c(O)ccc3oc4c5ccccc5oc(=O)c4c23)CC1 yielded an IC50 (Vero) of 16 µg/mL (≈ 44 µM) and a selectivity ratio [4] of 32.

O=c1oc2ccc(O)cc2c2oc3ccc(O)c(CN4CCCCC4)c3c12 gave an IC50 (Vero) of 4 µg/mL (≈ 10.9 µM) and a selectivity ratio [4] of 8.

Molecule CN(C)[C@@H]1C(O)=C(C(N)=O)C(=O)[C@@]2(O)C(O)=C3C(=O)c4c(O)cccc4[C@@](C)(O)[C@H]3C[C@@H]12 [TETRACYCLINE] has an MIC (Bacillus subtilis) greater than 25 µg/mL.

For O=C(O)Cc1ccccc1Nc1c(Cl)cccc1Cl [DICLOFENAC], the half-life (in vitro [8]) was 11.9 min and the CLint scaled (in vitro [9]) was 105 mL/min/kg.

CCOC(=O)c1c(NC(=O)c2c(F)c(F)c(F)c(F)c2F)sc(C(N)=O)c1C gave an MIC [10] of 0.5 µM (≈ 0.211 µg/mL).

In the case of C[C@]12CC[C@H]3[C@@H](CCC4=CC(=O)CC[C@@]43C)[C@@H]1CC[C@@H]2O [TESTOSTERONE], the remaining at 1 h (in vitro [11]) is reported as 12.5% and the CLint scaled (in vitro [9]) is reported as 62.8 mL/min/kg.

In the case of CN[C@H](CC(C)C)C(=O)N[C@H]1C(=O)N[C@@H](CC(N)=O)C(=O)N[C@H]2C(=O)N[C@H]3C(=O)N[C@H](C(=O)N[C@H](C(=O)O)c4cc(O)cc(O)c4-c4cc3ccc4O)[C@H](O)c3ccc(c(Cl)c3)Oc3cc2cc(c3O[C@@H]2O[C@H](CO)[C@@H](O)[C@H](O)[C@H]2O[C@H]2C[C@](C)(N)[C@H](O)[C@H](C)O2)Oc2ccc(cc2Cl)[C@H]1O [VANCOMYCIN], the MIC (Escherichia coli [2]) is reported as greater than 25 µg/mL, the MIC (Escherichia coli [3]) is reported as greater than 25 µg/mL and the MIC (Bacillus subtilis) is reported as greater than 25 µg/mL.

With CNC(=O)c1c(-c2ccc(O)cc2)oc2ccc(O)c(CN3CCCCC3)c12 the MIC [12] was 0.0313 µg/mL (≈ 0.0823 µM) and the Activity [6] was “Active”.

For CCOC(=O)c1c(-c2ccc(O)cc2)oc2ccc(O)c(CN3CCCCC3)c12, the remaining at 1 h (in vitro [11]) was 10.8% and the CLint scaled (in vitro [9]) was 66.3 mL/min/kg.

For CCOC(=O)c1c(-c2ccccc2)oc2ccc(O)c(CN3CCCCC3)c12, the remaining at 1 h (in vitro [11]) was 46.6%, the half-life (in vitro [8]) was 53 min and the CLint scaled (in vitro [13]) was 26.2 mL/min/kg. For the same molecule, the CLint scaled (in vitro [9]) was 23.6 mL/min/kg.

With CC1CCCCN1Cc1c(O)ccc2oc3c4ccccc4oc(=O)c3c12 (centres undefined) the IC50 (Vero) was 16 µg/mL (≈ 44 µM) and the selectivity ratio [4] was 16.

Molecule O=c1oc2ccccc2c2oc3ccc(O)c(CN4CCCC4)c3c12 has an IC50 (Vero) of 8 µg/mL (≈ 23.9 µM) and a selectivity ratio [4] of 16.

With O=c1oc2ccccc2c2oc3ccc(O)c(CN4CCCCC4)c3c12 the remaining at 1 h (in vitro [11]) was 14.5%, the half-life (in vitro [8]) was 21.4 min and the CLint scaled (in vitro [13]) was 64.9 mL/min/kg. The CLint scaled (in vitro [9]) was 58.4 mL/min/kg.

CCOC(=O)c1c(-c2ccccc2)oc2ccc(O)c(CN3CCC(C)CC3)c12 gave an MIC [14] of 1 µg/mL (≈ 2.54 µM).

Molecule O=c1oc2cc(O)ccc2c2oc3ccc(O)c(CN4CCCCC4)c3c12 has an IC50 (HEK293) greater than 50 µM, an MIC (Escherichia coli [2]) greater than 25 µg/mL and an MBC99 [15] of 0.0039 to 0.0078 µg/mL. For the same molecule, the remaining at 1 h (in vitro [11]) was 73.6%, the MIC (Escherichia coli [3]) was greater than 25 µg/mL and the IC50 (HFL1) was greater than 50 µM. The IC50 (Vero) was 4 µg/mL (≈ 10.9 µM), the selectivity ratio [4] was 1024 and the MIC (Staphylococcus aureus) was greater than 25 µg/mL. The Activity [5] was “Active”, the MIC (Bacillus subtilis) was greater than 25 µg/mL and the IC50 (MRC5) was greater than 50 µM. The IC50 [7] was 40.1 µM.

For CC(C)(C)c1cc(O)c(CN2CCCCC2)c2c1oc1c3ccccc3oc(=O)c12, the IC50 (Vero) was 16 µg/mL (≈ 39.5 µM) and the selectivity ratio [4] was 128 to 256.

For CCOC(=O)C1=C(NC(=O)c2c(F)c(F)c(F)c(F)c2F)SC2CN(CC)CCC12 (centres undefined), the MIC [16] was 0.23 µM (≈ 0.104 µg/mL).

Cc1cc(O)c(CN2CCCCC2)c2c1oc1c3ccccc3oc(=O)c12 showed an IC50 (Vero) of 8 µg/mL (≈ 22 µM) and a selectivity ratio [4] of 64.

With NNC(=O)c1ccncc1 the Activity [17] was “Active”.

In the case of COC(=O)c1c(NC(=O)c2c(F)c(F)c(F)c(F)c2F)sc2c1CCCCC2, the MIC [10] is reported as 1 µM (≈ 0.419 µg/mL).

CC(C)(C)c1cc(O)c(CN2CCCCC2)c2c1oc1c3cc(O)ccc3oc(=O)c12 gave an IC50 (Vero) of 8 µg/mL (≈ 19 µM) and a selectivity ratio [4] of 64.
